Assays:
Type in all cases: cell-based
[1] = biological target: T1, M2 muscarinic receptor (Homo sapiens, UniProt P08172); test: Functional mobilization of intracellular calcium (FLIPR), M2-CHO cells; conditions: for M2 Activity: M2-CHO cells, calcium mobilization (FLIPR)
T1 construct: expressed in transfected cells; host or cells: CHO (M2-CHO)
T1 sequence (P08172 1-466): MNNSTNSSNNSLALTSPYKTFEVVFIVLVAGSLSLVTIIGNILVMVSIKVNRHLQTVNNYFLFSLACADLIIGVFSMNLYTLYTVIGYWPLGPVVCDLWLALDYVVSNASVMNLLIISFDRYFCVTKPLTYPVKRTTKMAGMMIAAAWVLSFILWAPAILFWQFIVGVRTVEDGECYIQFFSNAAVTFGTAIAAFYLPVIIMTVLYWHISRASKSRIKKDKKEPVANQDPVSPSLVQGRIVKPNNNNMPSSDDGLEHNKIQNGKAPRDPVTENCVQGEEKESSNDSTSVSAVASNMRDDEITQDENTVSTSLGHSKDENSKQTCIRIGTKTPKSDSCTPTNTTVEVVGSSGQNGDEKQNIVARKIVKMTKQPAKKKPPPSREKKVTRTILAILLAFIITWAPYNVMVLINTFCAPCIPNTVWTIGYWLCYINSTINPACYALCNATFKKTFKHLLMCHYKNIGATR
How it was run: (§1)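 Calcium mobilisation read by FLIPR over 60 s (ex 488/em 540 nm) in recombinant muscarinic CHO lines loaded with calcium dye plus 1 mM probenecid. Compounds tested as agonists alone, or as inhibitors against EC80 carbachol after 15 min pre-incubation or co-addition; 0.5% DMSO; efficacy scaled to carbachol maximal response.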

[2] = biological target: T2, M3 muscarinic receptor (Homo sapiens, UniProt P20309); test: Functional mobilization of intracellular calcium (FLIPR), M3-CHO cells; conditions: for M3 Activity: M3-CHO cells, calcium mobilization (FLIPR)
T2 construct: expressed in transfected cells; host or cells: CHO (M3-CHO)
How it was run: as §1

[3] = biological target: T3, M4 muscarinic receptor (Homo sapiens, UniProt P08173); test: Functional mobilization of intracellular calcium (FLIPR), M4-CHO cells; conditions: for M4 Activity: M4-CHO cells, calcium mobilization (FLIPR)
T3 construct: expressed in transfected cells; host or cells: CHO (M4-CHO)
T3 sequence (P08173 1-479): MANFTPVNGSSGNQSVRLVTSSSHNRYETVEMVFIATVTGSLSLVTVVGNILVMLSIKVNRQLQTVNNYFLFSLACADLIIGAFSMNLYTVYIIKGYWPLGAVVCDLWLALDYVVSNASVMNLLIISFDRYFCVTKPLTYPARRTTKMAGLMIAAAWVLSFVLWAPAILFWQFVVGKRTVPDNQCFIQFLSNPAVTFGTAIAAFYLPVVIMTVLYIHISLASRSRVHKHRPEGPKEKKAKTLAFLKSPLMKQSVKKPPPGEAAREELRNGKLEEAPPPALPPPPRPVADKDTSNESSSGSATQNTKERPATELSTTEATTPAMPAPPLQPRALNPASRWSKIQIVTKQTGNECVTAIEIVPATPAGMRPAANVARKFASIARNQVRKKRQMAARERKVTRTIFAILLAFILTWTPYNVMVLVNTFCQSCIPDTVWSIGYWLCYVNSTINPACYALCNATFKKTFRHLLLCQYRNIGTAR
How it was run: as §1

[4] = biological target: T4, M1 muscarinic receptor (Homo sapiens, UniProt P11229); test: Functional mobilization of intracellular calcium (FLIPR), M1-CHO cells; conditions: for M1 Activity: M1-CHO cells, calcium mobilization (FLIPR)
T4 construct: expressed in transfected cells; host or cells: CHO (M1-CHO)
T4 sequence (P11229 1-460): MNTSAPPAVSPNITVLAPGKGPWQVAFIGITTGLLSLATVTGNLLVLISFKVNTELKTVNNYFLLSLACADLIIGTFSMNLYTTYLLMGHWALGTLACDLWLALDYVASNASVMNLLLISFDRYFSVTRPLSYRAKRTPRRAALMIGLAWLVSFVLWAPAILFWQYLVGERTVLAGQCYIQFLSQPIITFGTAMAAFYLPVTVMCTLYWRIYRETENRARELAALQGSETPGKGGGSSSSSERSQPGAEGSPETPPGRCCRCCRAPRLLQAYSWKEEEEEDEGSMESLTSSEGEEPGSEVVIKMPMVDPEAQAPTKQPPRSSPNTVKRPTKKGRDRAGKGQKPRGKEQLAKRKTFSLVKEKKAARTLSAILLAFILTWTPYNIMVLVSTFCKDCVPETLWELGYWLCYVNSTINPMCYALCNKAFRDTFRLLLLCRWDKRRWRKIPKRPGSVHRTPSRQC
How it was run: as §1

[5] = 100% efficacy = maximum response obtained with the Carbachol control

T2 sequence (P20309 whole entry): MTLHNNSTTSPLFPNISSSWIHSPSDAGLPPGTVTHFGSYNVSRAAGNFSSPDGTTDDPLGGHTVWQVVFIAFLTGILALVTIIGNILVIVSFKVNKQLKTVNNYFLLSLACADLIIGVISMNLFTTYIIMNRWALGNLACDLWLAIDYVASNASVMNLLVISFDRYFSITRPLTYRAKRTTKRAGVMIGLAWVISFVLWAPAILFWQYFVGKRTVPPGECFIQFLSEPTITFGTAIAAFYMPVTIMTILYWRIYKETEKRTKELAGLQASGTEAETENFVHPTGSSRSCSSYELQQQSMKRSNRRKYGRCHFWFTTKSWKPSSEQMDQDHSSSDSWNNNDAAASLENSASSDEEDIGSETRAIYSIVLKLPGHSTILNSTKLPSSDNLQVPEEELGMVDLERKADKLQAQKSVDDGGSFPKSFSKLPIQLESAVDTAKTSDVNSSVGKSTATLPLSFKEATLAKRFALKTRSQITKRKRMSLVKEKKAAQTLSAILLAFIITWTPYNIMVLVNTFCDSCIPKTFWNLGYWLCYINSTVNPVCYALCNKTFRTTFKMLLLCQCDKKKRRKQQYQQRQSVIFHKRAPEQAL

Compound | Emax [1, 5] | M2 Activity [1] | Emax [2, 5] | M3 Activity [2] | Emax [3, 5] | M4 Activity [3] | Emax [4, 5] | M1 Activity [4] | M2 Efficacy [1, 5] | M3 Efficacy [2, 5] | M4 Efficacy [3, 5] | M1 Efficacy [4, 5]
COc1ccc(Cl)cc1C1CCN(CC2CCOCC2)CC1 [Compound 121] | < 25% | + (activity was measured to be greater than 5.0 μM) | < 25% | + (activity was measured to be greater than 5.0 μM) | 25 to 100% | +++ (activity was measured to be less than 1.0 μM) | 25 to 100% | ++ (activity was measured to be from 1.0 μM to 5.0 μM) | – | – | – | –
CCOC(=O)N1CCC(CN2CCC(F)(c3cc(Cl)ccc3OC)CC2)CC1 [Compound 122] | 25 to 100% | ++ (activity was measured to be from 1.0 μM to 5.0 μM) | < 25% | + (activity was measured to be greater than 5.0 μM) | 25 to 100% | +++ (activity was measured to be less than 1.0 μM) | 25 to 100% | ++ (activity was measured to be from 1.0 μM to 5.0 μM) | – | – | – | –
COc1ccc(Cl)cc1C1(OC)CCN(CC2CCOCC2)CC1 [Compound 123] | < 25% | + (activity was measured to be greater than 5.0 μM) | < 25% | + (activity was measured to be greater than 5.0 μM) | < 25% | + (activity was measured to be greater than 5.0 μM) | 25 to 100% | ++ (activity was measured to be from 1.0 μM to 5.0 μM) | – | – | – | –
COc1ccc(-c2ccncc2)cc1C1CCN([C@@H]2C[C@@H]3CC[C@H]2C3)CC1 [Compound 124, 4-(3-(1-((1S,2R,4R)-bicyclo[2.2.1]heptan-2-yl)piperidin-4-yl)-4-methoxyphenyl) pyridine] | < 25% | + (activity was measured to be greater than 5.0 μM) | < 25% | + (activity was measured to be greater than 5.0 μM) | < 25% | + (activity was measured to be greater than 5.0 μM) | < 25% | + (activity was measured to be greater than 5.0 μM) | – | – | – | –
COc1ccc(-c2ccc(OC(F)(F)F)cc2)cc1C1CCN([C@H]2C[C@H]3CC[C@H]2C3)CC1 [Compound 126] | < 25% | + (activity was measured to be greater than 5.0 μM) | < 25% | + (activity was measured to be greater than 5.0 μM) | 25 to 100% | + (activity was measured to be greater than 5.0 μM) | 25 to 100% | + (activity was measured to be greater than 5.0 μM) | – | – | – | –
O=C(COc1ccccc1C1CCN([C@H]2C[C@H]3CC[C@H]2C3)CC1)c1ccc(N2CCCC2)cc1 [Compound 127] | 25 to 100% | ++ (activity was measured to be from 1.0 μM to 5.0 μM) | < 25% | + (activity was measured to be greater than 5.0 μM) | 25 to 100% | +++ (activity was measured to be less than 1.0 μM) | 25 to 100% | ++ (activity was measured to be from 1.0 μM to 5.0 μM) | – | – | – | –
COc1ccc(-c2ccc(C(=O)N3CCCCC3)cc2)cc1C1CCN([C@H]2C[C@H]3CC[C@H]2C3)CC1 [Compound 128] | < 25% | + (activity was measured to be greater than 5.0 μM) | < 25% | + (activity was measured to be greater than 5.0 μM) | < 25% | ++ (activity was measured to be from 1.0 μM to 5.0 μM) | < 25% | + (activity was measured to be greater than 5.0 μM) | – | – | – | –
COc1ccc(-c2ccc(S(=O)(=O)N3CCCC3)cc2)cc1C1CCN(C2CC3CCC(C3)C2)CC1 (stereo not drawn) [Compound 129] | < 25% | + (activity was measured to be greater than 5.0 μM) | < 25% | + (activity was measured to be greater than 5.0 μM) | 25 to 100% | + (activity was measured to be greater than 5.0 μM) | < 25% | + (activity was measured to be greater than 5.0 μM) | – | – | – | –
COc1ccc(Cl)cc1C1CCN(C2CCC(=NOC(C)(C)C)CC2)CC1 (stereo not drawn) [Compound 130] | – | + (activity was measured to be greater than 5.0 μM) | – | + (activity was measured to be greater than 5.0 μM) | – | +++ (activity was measured to be less than 1.0 μM) | – | ++ (activity was measured to be from 1.0 μM to 5.0 μM) | + (efficacy was calculated to be less than 25%) | + (efficacy was calculated to be less than 25%) | ++ (efficacy was calculated to be from 100% to 25%) | ++ (efficacy was calculated to be from 100% to 25%)
COc1ccccc1C1CC2CCC(C1)N2C1CCCCC1 (stereo not drawn) [Compound 132] | < 25% | + (activity was measured to be greater than 5.0 μM) | < 25% | + (activity was measured to be greater than 5.0 μM) | < 25% | ++ (activity was measured to be from 1.0 μM to 5.0 μM) | < 25% | ++ (activity was measured to be from 1.0 μM to 5.0 μM) | – | – | – | –
Clc1cccc(C2CCN(C3CC4CCC(C4)C3)CC2)c1 (stereo not drawn) [Compound 133] | < 25% | + (activity was measured to be greater than 5.0 μM) | < 25% | + (activity was measured to be greater than 5.0 μM) | 25 to 100% | +++ (activity was measured to be less than 1.0 μM) | 25 to 100% | + (activity was measured to be greater than 5.0 μM) | – | – | – | –
COc1ccc(F)cc1C1(F)CCN(C[C@H]2C[C@H]3C=C[C@H]2C3)CC1 [Compound 134] | 25 to 100% | ++ (activity was measured to be from 1.0 μM to 5.0 μM) | < 25% | + (activity was measured to be greater than 5.0 μM) | 25 to 100% | +++ (activity was measured to be less than 1.0 μM) | 25 to 100% | ++ (activity was measured to be from 1.0 μM to 5.0 μM) | – | – | – | –
Cc1ccc(C)c(C2(O)CCN(C3CC4CCC3C4)CC2)c1 (stereo not drawn) [Compound 135] | < 25% | + (activity was measured to be greater than 5.0 μM) | – | + (activity was measured to be greater than 5.0 μM) | < 25% | + (activity was measured to be greater than 5.0 μM) | 25 to 100% | + (activity was measured to be greater than 5.0 μM) | – | – | – | –
COc1ccccc1C1CCN(C2CC(C)(C)CC(C)(C)C2)CC1 [Compound 138] | < 25% | + (activity was measured to be greater than 5.0 μM) | < 25% | + (activity was measured to be greater than 5.0 μM) | < 25% | + (activity was measured to be greater than 5.0 μM) | < 25% | + (activity was measured to be greater than 5.0 μM) | – | – | – | –
